“And” between values parts separate entries of the source, which are not always exact repeats. Equal entries are not always repeated.
Legend:
Type in all cases: binding
LC3/GABARAP = assay: Chemoproteomic competition pulldown assay (affinity matrix, LC-MS/MS) in HEK293T lysate; conditions: HEK293T cell lysate
Description: Preparation of Affinity Matrix 10O5 and 8F20: Compounds 18 and 19 (1 µM) were linked to DMSO-washed NHS-activated ( ~ […] beads) sepharose beads (1 mL) and triethylamine (20 µL) in DMSO (2 mL) on an end-over-end shaker overnight at RT in the dark. Aminoethanol (50 µL) was then added to inactivate the remaining NHS-activated carboxylic acid groups. […] Successful immobilization was controlled by LC-MS and Kaiser-test[46].
Preparation of cell lysates for affinity pulldown assays: HEK293 cells (ATCC; CRL-11268) were cultured in DMEM (PAN Biotech). All media were supplemented with 10% FBS (PAN Biotech) and cells were internally tested for Mycoplasma contamination. […] The protein amount of cell lysates was determined by Bradford assay and adjusted to a concentration of 5 mg/mL[46]. […]
LC-MSMS measurement of (competition) pulldown assays: Peptides were analyzed via LC-MS/MS on a Dionex Ultimate3000 nano HPLC coupled to an Orbitrap Fusion Lumos mass spectrometer, operated via the Thermo Scientific Xcalibur software. […]
The mass spectrometer was operated in data dependent mode, automatically switching between MS1 and MS2 spectra. […] Up to 12 peptide precursors were isolated (isolation width of 1.2 Th, maximum injection time of 75 ms, AGC value of 2e5), fragmented by HCD using 25 % […] normalized collision energy (NCE) and analyzed in the Orbitrap at a resolution of 15,000. […]

KIF11 = molecular target: T1, KIF11 (Homo sapiens, UniProt P52732); assay: as above; conditions: over 4000 proteins identified
T1 construct: endogenous in cells; host or cells: HEK293 / HEK293T (ATCC; CRL-11268) lysate
T1 sequence (P52732 1-1056): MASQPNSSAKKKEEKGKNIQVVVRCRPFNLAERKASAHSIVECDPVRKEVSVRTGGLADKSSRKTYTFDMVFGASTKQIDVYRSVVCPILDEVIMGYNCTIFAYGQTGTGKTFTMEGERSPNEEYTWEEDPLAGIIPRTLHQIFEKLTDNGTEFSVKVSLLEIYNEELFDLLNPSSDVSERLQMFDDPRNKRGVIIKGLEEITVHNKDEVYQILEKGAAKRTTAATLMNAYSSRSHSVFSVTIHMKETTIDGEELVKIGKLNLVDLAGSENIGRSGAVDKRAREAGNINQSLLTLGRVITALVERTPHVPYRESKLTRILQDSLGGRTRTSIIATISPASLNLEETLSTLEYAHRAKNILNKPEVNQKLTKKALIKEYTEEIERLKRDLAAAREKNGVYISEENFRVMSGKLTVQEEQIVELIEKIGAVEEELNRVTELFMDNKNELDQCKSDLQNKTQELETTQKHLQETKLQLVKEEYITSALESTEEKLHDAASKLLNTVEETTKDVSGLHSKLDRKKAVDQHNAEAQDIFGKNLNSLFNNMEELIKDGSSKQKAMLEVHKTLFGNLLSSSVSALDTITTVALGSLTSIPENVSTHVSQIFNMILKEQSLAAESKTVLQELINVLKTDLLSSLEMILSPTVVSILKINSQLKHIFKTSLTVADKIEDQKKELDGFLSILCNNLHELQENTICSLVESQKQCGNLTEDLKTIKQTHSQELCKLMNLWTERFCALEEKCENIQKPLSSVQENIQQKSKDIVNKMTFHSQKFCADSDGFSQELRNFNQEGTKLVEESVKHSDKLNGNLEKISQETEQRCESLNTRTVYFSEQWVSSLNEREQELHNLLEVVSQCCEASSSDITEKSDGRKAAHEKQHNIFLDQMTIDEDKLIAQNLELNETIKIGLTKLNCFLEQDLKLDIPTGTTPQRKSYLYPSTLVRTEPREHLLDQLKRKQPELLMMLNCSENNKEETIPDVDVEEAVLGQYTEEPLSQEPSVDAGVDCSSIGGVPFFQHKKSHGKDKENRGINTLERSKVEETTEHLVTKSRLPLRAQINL
Description: The experiment was performed once at each concentration (n = 1).
The beads were washed (1 × 1 mL of lysis buffer without inhibitors and only 0.4% Igepal, 2 × 2 mL of lysis buffer without inhibitors and only 0.2% Igepal, and 3x lysis buffer without Igepal). The remaining proteins were denatured in 40 µl of 8 M urea buffer (with 10 mM DTT in 40 mM Tris-HCl, pH 7.4), alkylated by adding 5 µl of 55 mM chloroacetamide and digested by adding 30 µl of 10 ng/µl Trypsin solution. […]
Precursor tolerance was set to 10 ppm and fragment ion tolerance to 20 ppm. […] Label-free quantification[47] and match between runs was enabled[46].
Competition pulldown assay data analysis: Relative residual binding of proteins to the affinity matrix was calculated based on the protein intensity ratio relative to the DMSO control for every single inhibitor concentration. […]

LC3A [1] = molecular target: T2, LC3A (Homo sapiens, UniProt Q9H492); assay: Isothermal titration calorimetry (ITC); conditions: rounded, rebuttal letter; Novobiocin in reverse titration
LC3A [2] = molecular target: T2, LC3A; assay: Isothermal titration calorimetry (ITC); conditions: replicates 1-3, rebuttal letter
Text: To minimize nonspecific dilution heat effects, DMSO concentrations in the protein and compound samples were matched. […] For this protocol, the chamber was pre-equilibrated with the protein, and the test compounds were titrated while continuously measuring the rate of exothermic heat evolution. The heat of binding was integrated, corrected, and fitted to an independent single-binding site model based on the manufacturer’s instructions, from which thermodynamic parameters (ΔH and TΔS), equilibrium association and dissociation constants (KA and KD, respectively), and stoichiometry (n) were calculated using TA Instruments NanoAnalyze software.

[3] = system: LC3/GABARAPs (human Atg8 family); assay: FP assay with Cy5-labelled p62 LIR tracer, statements on all LC3/GABARAPs

SMILES	enrichment / pulldown of LC3/GABARAP by affinity matrix (LC3/GABARAP)	additional targets in proteome-wide pulldown (KIF11)	enthalpies observed in ITC experiments (LC3A [1])	Enthalpy (ITC, repeated titration) (LC3A [2]; listed as LY223982)	Entropy (ITC, repeated titration) (LC3A [2]; listed as LY223982)	Stoichiometry, n (ITC, repeated titration) (LC3A [2]; listed as LY223982)	Kd (LC3A [2]; read-out: KD (ITC, repeated titration))	interaction with LC3/GABARAP family members in FP displacement assay [3]
Cc1ccc(C(=O)N(CCCNC(=O)CCOCCOCCOCCN)[C@@H](c2nc3cc(Cl)ccc3c(=O)n2Cc2ccccc2)C(C)C)cc1 [compound 19, (R)-N-(1-amino-12-oxo-3,6,9-trioxa-13-azahexadecan-16-yl)-N-(1-(3-benzyl-7-chloro-4-oxo-3,4-dihydroquinazolin-2-yl)−2-methylpropyl)−4-methylbenzamide]	did not enrich	No additional targets were detected	–	–	–	–	–	–
COc1ccc(/C=C/CCCCOc2ccc(C(=O)c3cccc(C(=O)O)c3)cc2CCC(=O)O)cc1 [compound 20]	–	–	-7 kcal/mol	-11,64 kCal/mol and -9,814 kCal/mol	-12,88 Cal/(mol*K) and -16,4 Cal/(mol*K) and -10,29 Cal/(mol*K)	1,011 and 1,038 and 1,021	11.2 µM and 11.4 µM and 10 µM	selective binding to LC3 family members

From paper PMC11589570, “Critical assessment of LC3/GABARAP ligands used for degrader development and ligandability of LC3/GABARAP binding pockets” (Nature Communications, 2024)
